Patent US20070088043A1, “Novel HDAC inhibitors” (ORCHID RESEARCH LABORATORIES LIMITED., priority 2005, published 2007)

Experiments:
[1] = tested on: NCIH 460 cells; assay: Anti-cancer screen (MTT), NCIH460; format: cell-based; conditions: Homo sapiens, NCI-H460, NCIH460 cells, 48 hours, MTT; for GI50: concentration to decrease % growth by 50%; for IC100: concentration to decrease % growth by 100%, read-out: NCIH460 TGI; for LC50: concentration to decrease % growth by 150%
Method: (§1) Experimental drugs are screened for anti-cancer activity in three cell lines for their GI50, TGI and LC50 values (using five concentrations for each compound). The cell lines are maintained in DMEM containing 10% fetal bovine serum. 96 well micro titer plates are inoculated with cells in 100 μL for 24 h at 37° C., 5% CO2, 95% air and 100% relative humidity. 5000 HCT 116 cells/well, 5000 NCIH 460 cells/well and 5000 U251 cells/well are plated. A separate plate with these cell lines is also inoculated to determine cell viability before the addition of the compounds (T0).
(§2) Following 24-hour incubation, experimental drugs are added to the 96 well plates. Each plate contains one of the above cell lines and the following in triplicate: five different concentrations (0.01, 0.1, 1, 10 and 100 μM) of four different compounds, appropriate dilutions of a cytotoxic standard and control (untreated) wells. Compounds are dissolved in DMSO to make 20 mM stock solutions on the day of drug addition and frozen at −20° C. Serial dilutions of these 20 mM stock solutions are made in complete growth medium such that 100 μL of these drug solutions in medium, of final concentrations equaling 0.01, 0.1, 1, 10 and 100 μM can be added to the cells in triplicate. Standard drugs whose anti-cancer activity has been well documented and which are regularly used are doxorubicin and SAHA.
(§3) For To measurement, 24 hours after seeding the cells, 10 μL of 3-(4,5-Dimethyl-2-thiazolyl)-2,5-diphenyl-2H-tetrazolium (MTT) solution per well is added and incubation carried out for 3 hours at 37° C., 5% CO2, 95% air and 100% relative humidity, protected from light. Cells incubated with compounds for 48 hours are treated similarly except with the addition of 20 μL MTT solution per well and a subsequent incubation under the same conditions. After 3 hours of MTT incubation, well contents are aspirated carefully followed by addition of 150 μL DMSO per well. Plates are agitated to ensure solution of the formazan crystals in DMSO and absorbance read at 570 nm. […]

[2] = tested on: HCT 116 cells; assay: Anti-cancer screen (MTT), HCT116; format: cell-based; conditions: Homo sapiens, HCT-116, HCT116 cells, 48 hours, MTT; for GI50: concentration to decrease % growth by 50%; for IC100: concentration to decrease % growth by 100%, read-out: HCT116 TGI; for LC50: concentration to decrease % growth by 150%
Method: as §1, §2, §3

[3] = tested on: MDAMB231/U251; assay: Anti-cancer screen (MTT), MDAMB231/U251; format: cell-based; conditions: MDAMB231/U251 cells, 48 hours; for GI50: concentration to decrease % growth by 50%; for IC100: concentration to decrease % growth by 100%, read-out: MDAMB231/U251 TGI; for LC50: concentration to decrease % growth by 150%
Method: as §1, §2, §3

[4] = tested on: NCIH460, HCT116, MDAMB231/U251; assay: Anti-cancer screen, mean GI50 over the cell lines; format: cell-based; conditions: in µM
Method: as §1, §2, §3

[5] = tested on: HDAC (Mouse Liver Extract); assay: Histone Deacetylase (HDAC) Inhibition Assay using Boc-Lys (Ac)-AMC Substrate; format: biochemical; conditions: mouse liver enzyme, NA = No Activity; for HDAC Inhibition 1 μM / HDAC Inhibition 10 μM: in % (unit assumed)
Description: HDAC Activitv Screening: Histone Deacetylase (HDAC) Inhibition Assay using Boc-Lys (Ac)-AMC Substrate:
Inhibition of HDAC has been implicated to modulate transcription and to induce apoptosis or differentiation in cancer cells. The fluorometric assay provides a fast and fluorescence based method that eliminates radioactivity, extractions or chromatography, as used in traditional assays. The assay based on two steps. First, the HDAC fluorometric substrate, which comprises an acetylated lysine side chain, is incubated with a sample containing HDAC activity (Mouse Liver Extract). Deacetylation of the substrate sensitizes the substrate, in the second step; treatment with the Trypsin stop solution produces a fluorophore that can be easily analyzed using fluorescence plate reader.
Assay was done in 96 well black microplate and total volume of the assay is 100 ul. Mouse liver enzyme is diluted 1:6 with HDAC buffer. Enzyme cocktail made of 10 ul of diluted enzyme and 30 ul of HDAC buffer. 40 ul of enzyme cocktail dispensed into each well. 10 ul of different concentrations of inhibitor added in to each well, except enzyme control well. Preincubated the plate at 30° C. for 5 minutes. The HDAC reaction is started by adding 50 ul of HDAC substrate (Boc-Lys (Ac)-AMC Substrate) solution. Incubated the plate at 30° C. for 30 minutes. Adding 100 ul of Trypsin stop solution stops the reaction. The plate is incubated again at 30° C. for 20-30 minutes. The release of AMC is monitored by measuring the fluorescence at excitation wavelength of 365 or 360 nm and emission wavelength of 440 or 460 nm. Buffer and substrate alone kept for blank subtraction. (Dennis Wegener et al, Anal. Biochem, 321, 2003, 202-208).

Row | SMILES | GI50 [1] | IC100 [1] | LC50 [1] | GI50 [2] | IC100 [2] | LC50 [2] | GI50 [3] | IC100 [3] | LC50 [3] | Mean GI50 [4] | HDAC Inhibition 1 μM [5] | HDAC Inhibition 10 μM [5] | IC50 [5]
1 | O=C(CCCCCCC(=O)N1CCN(CC(=O)Nc2ccccc2)CC1)NO [Example 31, 8-{4-[2-(Phenyl-2-ylamino)-2-oxoethyl]piperazin-1-yl}-N-hydroxy-8-oxo octanamide] | 60 µM | > 100 µM | > 100 µM | 60 µM | > 100 µM | > 100 µM | 0.6 µM | 94 µM | > 100 µM | 40.20 | 45.20 | 84.96 | 
2 | CC(=O)SCCCCC(=O)N1CCN(C(=O)CNc2nc3ccccc3s2)CC1 [Example 1, N-{2-[4-(5-thioacetylpentanoyl)piperazin-1-yl]-2-oxoethyl}-1,3-benzothiazol-2-amine] | > 100 µM | > 100 µM | > 100 µM | > 100 µM | > 100 µM | > 100 µM | 80 µM | > 100 µM | > 100 µM | >100 | 10.48 | 38.59 | 
3 | CC(=O)N(O)C(=O)CCCCCCC(=O)N1CCN(CC(=O)Nc2nc3ccccc3s2)CC1 [Example 39, 8-{4-[2-(1,3-Benzothiazol-2-ylamino)-2-oxoethyl]piperazin-1-yl}-N-acetyl-N-hydroxy-8-oxo octanamide] | 44 µM | 48 µM | > 100 µM | 8 µM | 57 µM | 98 µM | 22 µM | 52 µM | 78 µM | 24.7 | 81.4 | 96.6 | 0.55 µM
4 | CC(=O)N(OCc1ccccc1)C(=O)CCCCCCC(=O)N1CCN(CC(=O)Nc2nc3c(C)cccc3s2)CC1 [Example 41] | 26 µM | 100 µM | > 100 µM | 4.5 µM | 53 µM | > 100 µM | 0.1 µM | 6.2 µM | > 100 µM | 10.2 | 0.6 |  | 
5 | CC(=O)SCCCCC(=O)N1CCN(CC(=O)Nc2nccs2)CC1 [Example 7, 2-[4-(5-Thioacetylpentanoyl)piperazin-1-yl]-N-(1,3-thiozole-2-yl)acetamide] | 50 µM | 88 µM | > 100 µM | 85 µM | > 100 µM | > 100 µM | > 100 µM | > 100 µM | > 100 µM | 67.50 | 27.76 | 45.96 | 
6 | CC(=O)SCCCCCC(=O)N1CCN(CC(=O)Nc2nc(C)cs2)CC1 [Example 17, 2-[4-(6-Thioacetylhexanoyl)piperazin-1-yl]-N-(4-methyl-1,3-thiazol-2-yl)acetamide] | 7.5 µM | > 100 µM | > 100 µM | 26 µM | > 100 µM | > 100 µM | 67 µM | > 100 µM | > 100 µM | 33.50 | 68.04 | 96.19 | 
